From ChEMBL document CHEMBL1201862, “PubChem BioAssay data set” (2004)
The source made the active and inactive calls.

Columns and labels:
[1] = target: T1, Mannose-6-phosphate isomerase (Homo sapiens, UniProt P34949); assay: MPI inhibition at elevated mannose 6-phosphate – biochemical, fluorescence intensity, high mannose 6-phosphate, primary screen (AID 1220)
T1 sequence (P34949 whole entry): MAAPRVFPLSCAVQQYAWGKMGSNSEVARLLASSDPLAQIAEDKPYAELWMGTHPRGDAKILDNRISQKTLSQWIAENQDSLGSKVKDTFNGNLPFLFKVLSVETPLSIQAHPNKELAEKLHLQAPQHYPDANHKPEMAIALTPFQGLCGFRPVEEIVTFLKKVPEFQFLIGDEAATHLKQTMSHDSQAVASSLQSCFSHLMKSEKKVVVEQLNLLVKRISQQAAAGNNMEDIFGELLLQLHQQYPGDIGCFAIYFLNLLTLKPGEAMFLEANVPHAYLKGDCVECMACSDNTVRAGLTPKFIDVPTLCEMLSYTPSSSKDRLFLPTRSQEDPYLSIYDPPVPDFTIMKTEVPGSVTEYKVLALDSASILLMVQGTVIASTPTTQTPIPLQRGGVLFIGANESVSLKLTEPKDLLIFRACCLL

[2] = target: Mitogen-activated protein kinase 10 (Homo sapiens, UniProt P53779); assay: Dose response biochemical screening assay for inhibitors of c-Jun N-Terminal Kinase 3 (JNK3). [Related pubchem assays: 746 ]
Sequence of Mitogen-activated protein kinase 10 (P53779 whole entry): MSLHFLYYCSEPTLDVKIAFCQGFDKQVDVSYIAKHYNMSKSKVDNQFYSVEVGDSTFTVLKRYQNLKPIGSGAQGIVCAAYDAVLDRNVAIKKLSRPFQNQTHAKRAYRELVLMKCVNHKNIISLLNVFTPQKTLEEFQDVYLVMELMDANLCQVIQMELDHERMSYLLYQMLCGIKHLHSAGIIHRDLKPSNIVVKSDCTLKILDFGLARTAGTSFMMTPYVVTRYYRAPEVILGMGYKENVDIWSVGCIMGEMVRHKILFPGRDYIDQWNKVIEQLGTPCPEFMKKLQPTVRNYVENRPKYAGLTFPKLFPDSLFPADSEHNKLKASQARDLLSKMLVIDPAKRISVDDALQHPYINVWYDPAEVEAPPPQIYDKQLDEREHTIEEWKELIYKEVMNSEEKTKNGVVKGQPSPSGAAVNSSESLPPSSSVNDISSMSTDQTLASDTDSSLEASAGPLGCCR

[3] = target: T2, Lysosomal acid glucosylceramidase (Homo sapiens, UniProt P04062); assay: Dose response cell-based high throughput screening assay to identify enhancers of beta-glucosidase activity. [Related pubchem assays: 784 ]; format: functional
T2 sequence (P04062 whole entry): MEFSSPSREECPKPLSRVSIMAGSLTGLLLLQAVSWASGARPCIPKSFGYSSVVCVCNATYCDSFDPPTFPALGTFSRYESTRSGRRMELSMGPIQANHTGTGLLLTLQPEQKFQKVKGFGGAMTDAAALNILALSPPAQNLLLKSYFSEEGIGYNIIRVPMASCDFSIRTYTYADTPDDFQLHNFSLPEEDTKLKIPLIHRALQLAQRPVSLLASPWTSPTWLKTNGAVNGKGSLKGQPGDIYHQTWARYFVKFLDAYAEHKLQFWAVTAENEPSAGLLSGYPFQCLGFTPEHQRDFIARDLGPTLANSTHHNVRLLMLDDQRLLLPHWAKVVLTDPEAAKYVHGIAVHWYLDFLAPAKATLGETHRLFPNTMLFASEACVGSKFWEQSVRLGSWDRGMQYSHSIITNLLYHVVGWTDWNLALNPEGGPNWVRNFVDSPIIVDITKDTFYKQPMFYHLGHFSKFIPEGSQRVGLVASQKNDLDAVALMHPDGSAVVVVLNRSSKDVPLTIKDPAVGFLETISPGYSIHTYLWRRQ

[4] = target: T3, Oxysterols receptor LXR-beta (Homo sapiens, UniProt P55055); format: functional, cell-based;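 further: Cell-based luminescence dose-response assay of agonist activity at LXR, run as a confirmatory counterscreen to a daf-12 agonist screen; HEK293 cells with Gal4-LXR fusion and GAL4-driven luciferase reporter; agonist potency from rising luciferase signal of a Gal4-LXR reporter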
T3 sequence (P55055 whole entry): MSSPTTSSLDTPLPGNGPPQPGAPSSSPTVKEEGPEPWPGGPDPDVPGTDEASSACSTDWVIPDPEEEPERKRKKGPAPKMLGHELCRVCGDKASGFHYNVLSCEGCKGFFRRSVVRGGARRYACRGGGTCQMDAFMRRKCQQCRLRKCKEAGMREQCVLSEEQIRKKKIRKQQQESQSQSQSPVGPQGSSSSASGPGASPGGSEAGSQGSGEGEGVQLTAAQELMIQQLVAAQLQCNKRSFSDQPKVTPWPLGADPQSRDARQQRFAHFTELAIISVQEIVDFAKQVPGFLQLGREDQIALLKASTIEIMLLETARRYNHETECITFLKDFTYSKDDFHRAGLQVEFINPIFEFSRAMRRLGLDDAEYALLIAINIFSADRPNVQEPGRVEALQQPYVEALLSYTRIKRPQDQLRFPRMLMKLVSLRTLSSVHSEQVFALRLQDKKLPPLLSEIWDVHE

cells [5] = assay: cells
[6] = viability inhibitors of stage V gametocytes – luminescence, dose response (AID 1117278); format: functional, cell-based;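 further: gametocytes exposed to compound for 24 hours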
[7] = viability loss in human Jurkat cells – cell-based, luminescence, cytotoxicity control for P. falciparum gametocyte viability project, dose response (AID 1117277); format: functional;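 further: potency reflects loss of cellular ATP meaning fewer viable cells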
[8] = target: T4, Polyadenylate-binding protein 1 (Homo sapiens, UniProt P11940); assay: MLLE binding blockers, Cy5 peptide tracer – biochemical, fluorescence polarization, Cy5-PAM2 peptide, secondary, miRNA deadenylation inhibitor project, dose response (AID 602260); format: functional; conditions: read-out: IC50_Mean
T4 sequence (P11940 whole entry, the tested form may be a part): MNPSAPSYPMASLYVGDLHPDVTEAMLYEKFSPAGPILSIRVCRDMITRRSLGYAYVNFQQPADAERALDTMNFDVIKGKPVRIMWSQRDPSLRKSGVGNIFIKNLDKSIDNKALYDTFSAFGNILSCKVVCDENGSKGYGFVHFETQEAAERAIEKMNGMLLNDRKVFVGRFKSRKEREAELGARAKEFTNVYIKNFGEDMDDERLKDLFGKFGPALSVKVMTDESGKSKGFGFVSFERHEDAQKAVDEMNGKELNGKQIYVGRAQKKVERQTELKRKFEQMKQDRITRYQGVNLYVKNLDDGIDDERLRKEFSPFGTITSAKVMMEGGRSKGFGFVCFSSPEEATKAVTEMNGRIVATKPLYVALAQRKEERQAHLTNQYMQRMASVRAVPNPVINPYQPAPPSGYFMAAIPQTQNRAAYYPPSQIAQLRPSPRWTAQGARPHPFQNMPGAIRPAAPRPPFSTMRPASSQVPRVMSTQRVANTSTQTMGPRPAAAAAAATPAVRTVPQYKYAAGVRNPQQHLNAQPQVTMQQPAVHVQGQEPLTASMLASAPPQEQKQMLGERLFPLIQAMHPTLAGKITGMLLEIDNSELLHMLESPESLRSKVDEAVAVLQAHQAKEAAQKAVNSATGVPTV

[9] = target: T4, Polyadenylate-binding protein 1; assay: MLLE domain peptide-binding blockers, IC50 – biochemical, fluorescence polarization, FITC-PAM2 peptide, dose response (AID 602259); format: functional; conditions: read-out: IC50_Mean
cells [10] = assay: cells; remark: listed apart in the source
[11] = viability of uninfected HEp-2 cells – cell-based, HTS, cytotoxicity control for RSV inhibitor project, dose response (AID 2410); format: functional; conditions: human respiratory syncytial virus
Estrogen receptor = target: T5, Estrogen receptor (Homo sapiens, UniProt P03372);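 further: potency for inhibiting coactivator peptide recruitment to the receptor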
T5 sequence (P03372 whole entry): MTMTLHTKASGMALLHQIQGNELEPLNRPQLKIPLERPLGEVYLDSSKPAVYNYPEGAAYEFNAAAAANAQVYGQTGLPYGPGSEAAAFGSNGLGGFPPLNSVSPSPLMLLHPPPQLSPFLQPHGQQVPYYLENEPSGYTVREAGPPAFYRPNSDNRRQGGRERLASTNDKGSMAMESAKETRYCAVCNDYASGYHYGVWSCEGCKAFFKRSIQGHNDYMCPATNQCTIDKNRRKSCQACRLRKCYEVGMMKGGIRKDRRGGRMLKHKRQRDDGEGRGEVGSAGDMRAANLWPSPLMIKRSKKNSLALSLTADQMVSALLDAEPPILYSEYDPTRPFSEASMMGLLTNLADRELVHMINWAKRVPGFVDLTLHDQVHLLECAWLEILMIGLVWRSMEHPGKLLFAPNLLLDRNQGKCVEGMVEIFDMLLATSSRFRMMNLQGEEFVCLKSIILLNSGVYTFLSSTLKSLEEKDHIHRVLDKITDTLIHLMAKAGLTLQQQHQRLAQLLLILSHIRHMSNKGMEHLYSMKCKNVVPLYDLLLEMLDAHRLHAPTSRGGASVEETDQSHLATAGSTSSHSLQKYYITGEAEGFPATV

[12] = viability loss in THP-1 monocytes – THP-1 cells, cytotoxicity control for Vif-APOBEC3G degradation inhibitor project, dose response (AID 1117359); format: functional; conditions: THP-1
[13] = target: T6, Epstein-Barr nuclear antigen 1 (Epstein-Barr virus (strain B95-8) (HHV-4) (Human herpesvirus 4), UniProt P03211); assay: inhibition of EBV nuclear antigen 1 DNA binding – biochemical, fluorescence polarization, 1536-well, dose response (AID 2381); parameters: species or system human gammaherpesvirus 4;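 further: fluorescence polarization of a Cy5 DNA probe bound by EBNA-1 protein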
T6 sequence (P03211 whole entry): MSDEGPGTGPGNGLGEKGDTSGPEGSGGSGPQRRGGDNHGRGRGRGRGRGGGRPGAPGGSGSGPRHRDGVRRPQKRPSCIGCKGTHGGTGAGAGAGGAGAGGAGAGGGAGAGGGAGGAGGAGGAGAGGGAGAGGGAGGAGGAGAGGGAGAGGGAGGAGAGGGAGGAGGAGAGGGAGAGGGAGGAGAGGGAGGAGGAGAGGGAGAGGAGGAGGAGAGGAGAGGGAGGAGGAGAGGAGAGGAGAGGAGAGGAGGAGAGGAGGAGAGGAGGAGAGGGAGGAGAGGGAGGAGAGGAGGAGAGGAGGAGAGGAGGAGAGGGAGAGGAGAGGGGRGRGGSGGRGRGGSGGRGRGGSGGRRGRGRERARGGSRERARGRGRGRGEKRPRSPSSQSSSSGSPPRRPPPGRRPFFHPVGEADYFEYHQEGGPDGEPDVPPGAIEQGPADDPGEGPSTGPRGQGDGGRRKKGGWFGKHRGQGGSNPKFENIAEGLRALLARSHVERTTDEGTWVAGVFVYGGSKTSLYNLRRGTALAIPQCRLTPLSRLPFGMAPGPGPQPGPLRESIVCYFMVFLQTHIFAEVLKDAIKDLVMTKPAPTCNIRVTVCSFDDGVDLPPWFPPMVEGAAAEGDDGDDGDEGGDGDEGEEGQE

[14] = target: T7, Lytic switch protein BZLF1 (Epstein-Barr virus (strain B95-8) (HHV-4) (Human herpesvirus 4), UniProt P03206); assay: inhibition of BZLF1 ZTA DNA binding – biochemical, fluorescence polarization, Epstein-Barr virus, 1536-well, counter-screen for EBNA-1 inhibitor project, dose response (AID 2377); parameters: species or system human gammaherpesvirus 4;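 further: fluorescence polarization of Cy5-labelled ZRE DNA probe bound by purified Zta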
T7 sequence (P03206 whole entry): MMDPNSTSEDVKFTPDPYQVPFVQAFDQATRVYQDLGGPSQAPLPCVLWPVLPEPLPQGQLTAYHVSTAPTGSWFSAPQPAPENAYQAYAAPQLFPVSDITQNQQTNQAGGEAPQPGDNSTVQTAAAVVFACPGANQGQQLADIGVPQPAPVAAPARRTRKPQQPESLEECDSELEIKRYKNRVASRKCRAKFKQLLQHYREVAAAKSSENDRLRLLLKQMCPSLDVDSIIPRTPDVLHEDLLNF

Caspase-6 = target: T8, Caspase-6 (Homo sapiens, UniProt P55212); assay: inhibition of CASP6 peptide cleavage – biochemical, VEID-R110 fluorescence, cherry-pick, dose response (AID 720632)
T8 sequence (P55212 whole entry): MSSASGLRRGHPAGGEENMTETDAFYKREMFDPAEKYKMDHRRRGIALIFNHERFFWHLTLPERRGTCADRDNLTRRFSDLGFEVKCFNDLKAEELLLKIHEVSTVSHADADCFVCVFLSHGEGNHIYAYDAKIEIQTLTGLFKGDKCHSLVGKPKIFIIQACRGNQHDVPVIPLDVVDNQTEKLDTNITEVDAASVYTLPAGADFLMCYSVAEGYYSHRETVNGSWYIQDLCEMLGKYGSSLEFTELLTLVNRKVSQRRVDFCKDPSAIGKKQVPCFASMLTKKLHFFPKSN

[15] = target: T9, Carboxy-terminal domain RNA polymerase II polypeptide A small phosphatase 1 (Homo sapiens, UniProt Q9GZU7); assay: CTDSP1 inhibitors, concentration-response, biochemical, absorbance readout, ultra-high-throughput screen actives (AID 540297); format: functional
T9 sequence (Q9GZU7 whole entry): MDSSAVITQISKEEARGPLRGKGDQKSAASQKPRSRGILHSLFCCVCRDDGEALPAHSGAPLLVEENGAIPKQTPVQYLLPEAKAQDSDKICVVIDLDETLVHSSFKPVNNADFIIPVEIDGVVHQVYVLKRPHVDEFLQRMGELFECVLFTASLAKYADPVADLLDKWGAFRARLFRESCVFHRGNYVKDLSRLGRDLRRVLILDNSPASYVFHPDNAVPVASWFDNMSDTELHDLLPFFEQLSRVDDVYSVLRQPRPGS

## CN(C)c1cccc2c(C#N)ccc(N(C)C)c12
[1]
  IC50: > 50 µM (not active)

## CCN(CC)S(=O)(=O)c1ccc2nc(COC(=O)c3n[nH]c4ccccc34)[nH]c2c1
[2]
  IC50: 0.401 µM (active)

## O=C(CCNS(=O)(=O)c1cccc2nsnc12)NC1CCN(Cc2ccccc2)CC1
[3]
  EC50: > 50 µM (not active)

## O=C(NC(=S)Nc1ccc(Br)cn1)c1cccs1
[4]
  EC50: > 67.5 µM (inactive)
Cells [5]
  EC50: > 67.5 µM (inactive)

## O=C(NCc1ccc(F)cc1)C(Cc1ccccc1)NS(=O)(=O)c1cccs1 (stereo not drawn)
[6]
  IC50: > 109 µM (inactive)
[7]
  IC50: > 83.3 µM (inactive)

## c1coc(-c2nn3c(Cn4nnc5ccccc54)nnc3s2)c1
[8]
  IC50: > 66 µM (inactive)
[9]
  IC50: > 66 µM (inactive)
Cells [10]
  IC50: 8.25 µM (active)

## COc1cc2c(cc1NC(=O)Nc1ccccc1)oc1ccccc12
[11]
  CC50: 13.2 µM (active)
Cells [10]
  IC50: 30.4 µM (active)

## CC(=O)Nc1nc(C=C(Cl)Cl)cs1
Estrogen receptor
  IC50: > 50 µM (not active)

## CC(C)(C)C(=O)OCc1nc(-c2ccc(O)c(O)c2)cs1
[12]
  CC50: 27.8 µM (active)

## Cc1ccc(-n2c(SCC(=O)NCc3ccco3)nc3c4ccccc4nc-3c2O)cc1
[12]
  CC50: > 40 µM (active)

## CCOC(=O)[C@H]1[C@H]2COc3ccc(Cl)cc3[C@@H]2N2C(=O)c3ccc(Cl)cc3NC(=O)[C@@]12C
[13]
  IC50: > 148 µM (not active)
[14]
  IC50: > 111 µM (not active)

## O=[N+]([O-])c1c(NCCO)cc(N2CCC3(CC2)OCCO3)c2nonc12
[1]
  IC50: > 50 µM (not active)

## CN(C)c1ccc(S(=O)(=O)N2CCCCC2)cc1NC(=O)COc1ccccc1F
[6]
  IC50: > 109 µM (inactive)
[7]
  IC50: > 83.3 µM (inactive)

## CCOC(=O)c1ccc(-c2csc(NC(=O)CN3CCC(C)CC3)n2)cc1
[13]
  IC50: 5.32 µM (active)
[14]
  IC50: > 111 µM (not active)

## Cc1ccccc1CS(=O)(=O)Cc1ccc(C(=O)NCc2ccco2)o1
[3]
  EC50: > 50 µM (not active)

## O=c1c2sccc2n(Cc2cc(=O)n3ccccc3n2)c(=O)n1-c1ccccc1
Cells [10]
  IC50: 14 µM (active)

## Nc1c(C(=O)Nc2ccccc2)sc2nc(-c3ccco3)ccc12
[13]
  IC50: 6.43 µM (active)
[14]
  IC50: > 111 µM (not active)

## Cc1cccc(Nc2nc(NCc3ccco3)nc(N3CCOCC3)n2)c1
[11]
  CC50: 36.8 µM (active)
[6]
  IC50: > 109 µM (inactive)
[7]
  IC50: > 83.3 µM (inactive)

## Cc1nnc(NS(=O)(=O)c2ccc(N=Nc3ccc(N)nc3N)cc2)s1
Caspase-6
  AC50: 3.23 µM (active)

## C(=C\c1ccc([C@H]2[C@H]3CNC[C@@H]2N3Cc2ccccn2)cc1)/c1ccccc1
Caspase-6
  AC50: 41.9 µM (active)

## CN(/N=C/c1cccnc1)c1cnn(-c2ccc(F)c(Cl)c2)c(=O)c1Cl
Estrogen receptor
  IC50: 17.9 µM (active)
[15]
  IC50: > 80 µM (inactive)
